Laboratory results from patent publication US10137171B2, “Methods of treatment using a pentapeptide derived from the C-Terminus of Glucagon-Like Peptide 1 (GLP-1)” (The General Hospital Corporation, priority 2011, dated 2018).
“Also recorded” adds a separate entry of the source. Where no end group is shown, it is not given here.

What was measured:
diet-induced obese mice [1] = experiment: Intraperitoneal glucose tolerance test (ipGTT); format: in vivo, mouse; conditions: glucose 2 g/kg BW ip, overnight fasted, VHFD 24 weeks, 16 weeks infusion (FIG. 5C)
Experimental: FIGS. 5C-D are a pair of line graphs Plasma glucose levels (FIG. 5C) and (FIG. 5D) Plasma insulin levels after an intraperitoneal glucose administration ([…] BW ip) in overnight fasted mice fed in VHFD for 24-weeks and 16-weeks of continuous infusions of vehicle or GLP-1(32-36)amide. ***p<4E-03 vehicle vs. GLP-1(32-36)amide, *p<0.01 vehicle vs. GLP-1(32-36)amide, **p<0.004 vehicle vs. GLP-1(32-36)amide, *****p<1.7E-05 vehicle vs. GLP-1(32-36)amide, ****p<6.7 E-04 vehicle vs. GLP-1(32-36)amide.
Mice were maintained in a normal light/dark cycle according to the standard protocols of the MGH Animal Care and Use Committee. Mice were tested with age matched or litter mate controls and 6 mice per group are required. […] The following morning the mice were prepared for the glucose tolerance test: animals were weighed, the tail was nicked with a fresh razor blade by a horizontal cut of the very end, ˜35 to 50 microliters of blood is massaged from the tail to an eppendorf tube which is immediately placed on ice, baseline blood glucose is measured by the glucose oxidase method using a Glucometer Elite glucometer, and 2 grams/kg body weight of 20% D-glucose is drawn up in a Beckton Dickenson D 29 gage ½″ insulin syringe (one unit of D-glucose for every gram of body weight). Animals were then transferred to individually labeled 1000 cc cardboard soup cups with the lid liners removed.
Following animal preparation, glucose was injected into the intraperitoneal cavity. At 10, 20, 30, 60, 120, and 140 minutes blood glucose is sampled from the tail of each mouse by gently massaging a small drop of blood onto the glucometer strip. Glucose injections and blood glucose sampling is timed to take approximately the same amount of time per animal (i.e. 25 animals are injected in 12 minutes and blood glucose sampling of those same 25 animals should also take about 12 minutes) so that the sample times are accurate for each animal.

[2] = tested on: insulin-resistant isolated mouse hepatocytes; experiment: ROS formation assay (isolated primary hepatocytes); format: cell-based; conditions: 30 mM glucose 24 h; peptide 10 pM, 100 pM and 100 nM (FIG. 9A)
Experimental: FIG. 9A is a bar graph showing suppression of the production of reactive oxygen species (ROS) by the pentapeptide GLP-1(32-36)amide in insulin-resistant isolated mouse hepatocytes. Hepatocytes were rendered insulin-resistant by their pre-incubation in 30 mM glucose. Primary hepatocytes from C57BL/6J mice were seeded at 2×10^5 cell per well in twelve-well plates and treated for 24 h with 30 mM glucose in the absence of presence of GLP-1(32-36)amide (10 pM, 100 pM and 100 nM). To measure ROS levels cells were washed twice in HBSS (Hanks' Balance Salt Solution) and incubated with 10 uM 5-(and 6)-carboxy-2′,7′-dichlorohydro-fluorescein diacetate (CM-H2DCFDA) (Molecular Probes) for 45 minutes. The media were removed and cells were lysed. ROS was measured in the cell lysates using a spectrofluorometer (485 nm/535 nm). Data were normalized to values obtained from untreated controls. The data shown are the means of two independent hepatocyte isolations+/−SEMs.
Primary hepatocytes from diet-induced obese (DIO) and C57BL/6J mice were seeded in 12-well plates at a density of 2×10^5/well for 24 h. C57BL/6J hepatocytes were treated with 30 mM glucose in the absence or presence of GLP-1(32-36)amide for 20 to 24 h and compared to DIO hepatocytes treated with GLP-1(32-36)amide. […] ROS was measured in the cell lysates using a spectrofluorometer (485 nm/535 nm). […]

diet-induced obese mice [3] = experiment: Continuous osmopump infusion in very high-fat diet-induced obese mice: body weight, energy intake, Feed Efficiency; format: in vivo, mouse
Experimental: The data encompass twelve weeks, from week 2 to week 14 of continuous infusions of control vehicle and GLP-1(32-36)amide. GLP-1(32-36)amide was administered to mice via mini-osmopumps (Alzet #1004) at a rate of 40 nanomoles/Kg body weight/24 hours. Male C57bl/6j mice were placed on a high fat diet (Research Diets, #D12492, 60 kcal % fat) at six weeks of age and continued for 17 weeks before starting osmopump infusions at age 23 weeks. 1A. Line graph showing time-dependent changes in body weight (BW) over fourteen weeks of infusions of control vehicle and pentapeptide GLP-1(32-36)amide. (*) p<0.05 versus vehicle control; (**) p<0.04 versus vehicle control; (***) p<0.034; (#) p<0.01; (##) p<0.004; (###) p<0.0006, 0.0007; (####) p<0.0001. 1B. N=six mice per group. Values are means+/−SEMs. *p<0.013 peptide vs. vehicle. At week two of infusions of vehicle and pentapeptide the mice weighed 37.2 and 38.2 gms (averages of six mice), respectively. N=six mice per group.
FIG. 3 is a bar graph showing feed efficiency at the end of 12 week infusion. GLP-1(32-36)amide infusions in diet-induced obese mice lowers the Feed Efficiency index. The data are the means+/−SEMs (*p<0.06 pentapeptide vs. vehicle) of the values calculated from the […] period of infusions of control vehicle and GLP-1(32-36)amide shown in FIG. 4. The Feed efficiency (FE) is a calculation of the body weight (gms) divided by the energy intake kcal) in the food consumed. […] Basal energy expenditure in mice treated with pentapeptide is increased compared to mice treated with control vehicle. N=6 mice per group.
Male C57bl/6 mice at […] were placed on a very high-fat diet (VHFD, 60% fat, Research Diets) for 17 weeks. At week 17 the mice on the high-fat diet, corresponding to 23 weeks of age, mini-osmopumps containing either vehicle or GLP-1(32-36)amide were implanted subcutaneously for delivery of peptide or vehicle over 16 weeks. Forty nanomoles (20 micrograms) of GLP-1(32-36) was diluted in saline containing 0.1% human serum albumin and were infused at a rate of forty nanomoles/kgBW/day for 16 weeks to achieve an estimated concentration of approximately 100 pM similar to that reported by infusions of GLP-1(7-36)amide. For infusions longer than 4 weeks additional osmopumps with peptide were implanted at the end of each 4 weeks infusion. Body weights were recorded weekly. Food consumption was assessed every 3 to 4 days by weight. Energy intake (kcal/gm BW/week) and Feed Efficiency Index (FEI) were evaluated during the infusions of vehicle or peptide. The latter provides a measure of the efficiency of caloric conversion to body weight and it is calculated by determining the grams of body weight gain per cage/Kcal of food consumed per cage, [21]. There was no observable change in the activities of the mice amongst the various experimental groups. Mouse care was conducted under approval by the MGH Institutional Animal Care Use Committee.

LVKGRamide (LVKGR-NH2) [GLP-1(32-36)amide, pentapeptide derived from the C-terminus of the glucoincretin hormone GLP-1]
glycemic response in ipGTT (diet-induced obese mice [1]): normal
ROS levels [2]: prevented the rise in ROS levels; also recorded: suppression
average weekly change in body weight gain, less than control vehicle (diet-induced obese mice [3]; VHFD mice, 40 nanomoles/kg BW/day s.c. osmopump, measured over ten weeks (FIG. 1B)): 50%
body weight at week two of infusions (diet-induced obese mice [3]; VHFD mice, average of six mice, vehicle 37.2): 38.2 gms
time at which inhibition of weight gain reached statistical significance (diet-induced obese mice [3]; VHFD mice, continuous infusion 40 nanomoles/kg BW/day (FIG. 1A)): by week five; also recorded: as early as five weeks
energy intake (food intake) (diet-induced obese mice [3]; VHFD mice, ten weeks of infusion, vehicle 1.11±0.025): 1.15±0.030 Kcal/g body weight/week
Feed Efficiency decrease compared to vehicle (diet-induced obese mice [3]; VHFD obese mice (FIG. 3)): approximately 50%
Feed Efficiency index (effect in words) (diet-induced obese mice [3]; end of 12 week infusion, p<0.06 vs vehicle (FIG. 3)): lowers
body weights decreased compared to vehicle control (diet-induced obese mice [3]; end of the sixteen week infusion, high fat diet-induced obese mice): 50%
